Assay results as given in patent US9326986B2, “Quinazolinone, quinolone and related analogs as sirtuin modulators” (GLAXOSMITHKLINE LLC, priority 2008, dated 2016).

Target: T1, SIRT1 (Homo sapiens, UniProt Q96EB6)
T1 sequence (Q96EB6 1-747): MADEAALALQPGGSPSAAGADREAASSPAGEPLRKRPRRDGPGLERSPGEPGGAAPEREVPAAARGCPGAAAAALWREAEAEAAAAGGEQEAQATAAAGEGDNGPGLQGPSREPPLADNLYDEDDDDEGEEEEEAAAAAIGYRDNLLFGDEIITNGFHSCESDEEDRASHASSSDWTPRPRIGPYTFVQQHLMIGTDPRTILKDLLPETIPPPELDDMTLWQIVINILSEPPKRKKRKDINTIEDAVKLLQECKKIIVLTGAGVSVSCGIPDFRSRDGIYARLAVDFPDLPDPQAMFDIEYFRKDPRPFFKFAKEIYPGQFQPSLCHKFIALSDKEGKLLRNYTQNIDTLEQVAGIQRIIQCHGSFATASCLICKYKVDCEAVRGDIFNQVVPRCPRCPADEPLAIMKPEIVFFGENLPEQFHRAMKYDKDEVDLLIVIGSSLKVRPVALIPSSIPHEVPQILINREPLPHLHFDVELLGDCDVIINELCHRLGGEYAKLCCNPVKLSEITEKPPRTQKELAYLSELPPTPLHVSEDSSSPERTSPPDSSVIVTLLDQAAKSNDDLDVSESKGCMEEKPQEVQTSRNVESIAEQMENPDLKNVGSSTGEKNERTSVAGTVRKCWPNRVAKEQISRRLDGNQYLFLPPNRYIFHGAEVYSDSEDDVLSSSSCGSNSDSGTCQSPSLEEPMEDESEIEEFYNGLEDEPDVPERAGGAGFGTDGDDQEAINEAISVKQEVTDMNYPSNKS
Assay: Mass spectrometry based assay to identify modulators of SIRT1 activity (deacetylation of p53-based acetylated peptide)
Assay type: biochemical
Conditions: 10 nM SIRT1, 0.5 μM peptide substrate, 120 μM βNAD+, 25 minutes at 25° C.; for EC1.5 μM: SIRT1 activation
Excerpt: A mass spectrometry based assay was used to identify modulators of SIRT1 activity. The mass spectrometry based assay utilizes a peptide having 20 amino acid residues as follows: Ac-EE-K(biotin)-GQSTSSHSK(Ac)NleSTEG-K(5TMR)-EE-NH2 (SEQ ID NO: 1) wherein K(Ac) is an acetylated lysine residue and Nle is a norleucine. The peptide is labeled with the fluorophore 5TMR (excitation 540 nm/emission 580 nm) at the C-terminus. The sequence of the peptide substrate is based on p53 with several modifications. In addition, the methionine residue naturally present in the sequence was replaced with the norleucine because the methionine may be susceptible to oxidation during synthesis and purification.
The mass spectrometry assay is conducted as follows: 0.5 μM peptide substrate and 120 μM βNAD^+ is incubated with 10 nM SIRT1 for 25 minutes at 25° C. in a reaction buffer (50 mM Tris-acetate pH 8, 137 mM NaCl, 2.7 mM KCl, 1 mM MgCl2, 5 mM DTT, 0.05% BSA). Test compounds may be added to the reaction as described above. […] After the 25 minute incubation with SIRT1, 10 μL of 10% formic acid is added to stop the reaction. Reactions are sealed and frozen for later mass spec analysis. Determination of the mass of the substrate peptide allows for precise determination of the degree of acetylation (i.e. starting material) as compared to deacetylated peptide (product).
A control for inhibition of sirtuin activity is conducted by adding 1 μL of 500 mM nicotinamide as a negative control at the start of the reaction (e.g., permits determination of maximum sirtuin inhibition). A control for activation of sirtuin activity is conducted using 10 nM of sirtuin protein, with 1 μL of DMSO in place of compound, to determine the amount of deacetylation of the substrate at a given timepoint within the linear range of the assay. This timepoint is the same as that used for test compounds and, within the linear range, the endpoint represents a change in velocity.
For the above assay, SIRT1 protein was expressed and purified as follows. […] The protein was expressed by induction with 1 mM IPTG as an N-terminal His-tag fusion protein at 18° C. overnight and harvested at 30,000×g. Cells were lysed with lysozyme in lysis buffer (50 mM Tris-HCl, 2 mM Tris[2-carboxyethyl]phosphine (TCEP), 10 μM ZnCl2, 200 mM NaCl) and further treated with sonication for 10 min for complete lysis. The protein was purified over a Ni-NTA column (Amersham) and fractions containing pure protein were pooled, concentrated and run over a sizing column (Sephadex S200 26/60 global). The peak containing soluble protein was collected and run on an Ion-exchange column (MonoQ). Gradient elution (200 mM-500 mM NaCl) yielded pure protein. This protein was concentrated and dialyzed against dialysis buffer (20 mM Tris-HCl, 2 mM TCEP) overnight. The protein was aliquoted and frozen at −80° C. until further use.
Sirtuin modulating compounds that activated SIRT1 were identified using the assay described above and are shown below in Tables 1 and 2. The EC1.5 values for the activating compounds are represented by A (EC1.5<1.0 μM), B (EC1.5 1-25 μM), C (EC1.5>25 μM). The percent maximum fold activation is represented by A (Fold activation>200%) or B (Fold Activation<200%).

| Compound | % Fold Act. (percent maximum fold activation) | EC1.5 μM |
| --- | --- | --- |
| Cn1c(-c2ccc(N3CCOCC3)cc2)nc2c(C(=O)Nc3ccccn3)cccc2c1=O [Compound 217] | A (Fold activation>200%) | B (EC1.5 1-25 μM) |
| O=C(Nc1ccccn1)c1cccc2c(=O)[nH]c(-c3cccc(C(F)(F)F)c3)nc12 [Compound 218] | A (Fold activation>200%) | A (EC1.5<1.0 μM) |
| Cn1c(-c2cccc(C(F)(F)F)c2)nc2c(C(=O)Nc3cnccn3)cccc2c1=O [Compound 219] | A (Fold activation>200%) | A (EC1.5<1.0 μM) |
| COc1ccc(NC(=O)c2cccc3c(=O)n(C)c(-c4cccc(C(F)(F)F)c4)nc23)cc1OC [Compound 220, N-(3,4-dimethoxyphenyl)-3-methyl-4-oxo-2-(3-(trifluoromethyl)phenyl)-3,4-dihydroquinazoline-8-carboxamide] | A (Fold activation>200%) | A (EC1.5<1.0 μM) |
| Cn1c(-c2ccccc2S(C)(=O)=O)nc2c(C(=O)Nc3ccccn3)cccc2c1=O [Compound 221] | A (Fold activation>200%) | B (EC1.5 1-25 μM) |
| Cn1c(-c2cccc(S(C)(=O)=O)c2)nc2c(C(=O)Nc3ccccn3)cccc2c1=O [Compound 222] | A (Fold activation>200%) | B (EC1.5 1-25 μM) |
| Cn1c(-c2ccncc2)nc2c(C(=O)Nc3ccccn3)cccc2c1=O [Compound 223] | B (Fold Activation<200%) | C (EC1.5>25 μM) |
| Cn1c(C2CCC2)nc2c(C(=O)Nc3ccccn3)cccc2c1=O [Compound 224] | B (Fold Activation<200%) | C (EC1.5>25 μM) |
| Cn1c(-c2cscn2)nc2c(C(=O)Nc3ccccn3)cccc2c1=O [Compound 225] | B (Fold Activation<200%) | C (EC1.5>25 μM) |
| Cc1ncsc1-c1nc2c(C(=O)Nc3ccccn3)cccc2c(=O)n1C [Compound 226] | B (Fold Activation<200%) | B (EC1.5 1-25 μM) |
| Cn1ccnc1-c1nc2c(C(=O)Nc3ccccn3)cccc2c(=O)n1C [Compound 227] | B (Fold Activation<200%) | C (EC1.5>25 μM) |
| Cn1ccc(-c2nc3c(C(=O)Nc4ccccn4)cccc3c(=O)n2C)n1 [Compound 228] | B (Fold Activation<200%) | B (EC1.5 1-25 μM) |
| Cn1c(-c2cccc(C(F)(F)F)c2)nc2c(NC(=O)c3cncs3)cccc2c1=O [Compound 229] | B (Fold Activation<200%) | B (EC1.5 1-25 μM) |
| Cc1ncoc1C(=O)Nc1cccc2c(=O)n(C)c(-c3cccc(C(F)(F)F)c3)nc12 [Compound 230] | A (Fold activation>200%) | A (EC1.5<1.0 μM) |
| O=C(Nc1cccc2c(=O)[nH]c(-c3cccc(C(F)(F)F)c3)nc12)c1cnccn1 [Compound 231] | B (Fold Activation<200%) | C (EC1.5>25 μM) |
| CCn1c(-c2cccc(C(F)(F)F)c2)nc2c(NC(=O)c3cnccn3)cccc2c1=O [Compound 232] | A (Fold activation>200%) | A (EC1.5<1.0 μM) |
| CCCn1c(-c2cccc(C(F)(F)F)c2)nc2c(NC(=O)c3cnccn3)cccc2c1=O [Compound 233] | A (Fold activation>200%) | A (EC1.5<1.0 μM) |
| CC(C)Cn1c(-c2cccc(C(F)(F)F)c2)nc2c(NC(=O)c3cnccn3)cccc2c1=O [Compound 234] | A (Fold activation>200%) | A (EC1.5<1.0 μM) |
| O=C(Nc1cccc2c(=O)n(CCN3CCCC3)c(-c3cccc(C(F)(F)F)c3)nc12)c1cnccn1 [Compound 235] | A (Fold activation>200%) | B (EC1.5 1-25 μM) |
| Cn1cncc1C(=O)Nc1cccc2c(=O)n(C)c(-c3cccc(C(F)(F)F)c3)nc12 [Compound 236] | A (Fold activation>200%) | B (EC1.5 1-25 μM) |
| Cn1c(-c2cccc(C(F)(F)F)c2)nc2c(NC(=O)c3ccncc3)cccc2c1=O [Compound 237] | B (Fold Activation<200%) | B (EC1.5 1-25 μM) |
| Cn1ccnc1C(=O)Nc1cccc2c(=O)n(C)c(-c3cccc(C(F)(F)F)c3)nc12 [Compound 238] | A (Fold activation>200%) | B (EC1.5 1-25 μM) |
| Cn1c(-c2cccc(C(F)(F)F)c2)nc2c(NC(=O)c3ccccn3)cccc2c1=O [Compound 239, N-(3-methyl-4-oxo-2-(3-(trifluoromethyl)phenyl)-3,4-dihydroquinazolin-8-yl)picolinamide] | A (Fold activation>200%) | A (EC1.5<1.0 μM) |
| Cn1c(-c2cccc(C(F)(F)F)c2)nc2c(NC(=O)c3cccnc3)cccc2c1=O [Compound 240] | A (Fold activation>200%) | B (EC1.5 1-25 μM) |
| Cn1c(-c2cccc(C(F)(F)F)c2)nc2c(NC(=O)c3cncnc3)cccc2c1=O [Compound 241] | B (Fold Activation<200%) | C (EC1.5>25 μM) |
| Cn1c(-c2ccccc2Cl)nc2c(C(=O)Nc3ccccn3)cccc2c1=O [Compound 242] | B (Fold Activation<200%) | B (EC1.5 1-25 μM) |
| Cn1c(-c2cccc(Cl)c2)nc2c(C(=O)Nc3cccnc3)cccc2c1=O [Compound 243] | B (Fold Activation<200%) | B (EC1.5 1-25 μM) |
| Cn1c(-c2ccc(Cl)cc2)nc2c(C(=O)Nc3ccccn3)cccc2c1=O [Compound 244] | B (Fold Activation<200%) | C (EC1.5>25 μM) |
